The structures appear in SMILES notation.

Data set [1] is described as follows: Determination of the maximum tolerated dose (MTD). The settings on record: B6D2F1/Jico, mouse, in vivo, ip; single intraperitoneal administration, doses 2.5 to 160 mg/kg, survival over 14 days. As to the method:
The evaluation of the maximum tolerated dose was performed on 4- to 6-week-old B6D2F1/Jico mice. The compounds were administered intraperitoneally at increasing doses ranging from 2.5 to 160 mg/kg. The value of the MTD (expressed in mg/kg) is determined from the observation of the survival rate of the animals over a 14-day period after a single administration of the product under consideration. The change in weight of the animals is also monitored during this period. When the MTD value is greater than 160 mg/kg, the MTD value is considered as being 160 mg/kg by default.

In a further data set the test system is SW1088. Description: MTT test, cytotoxic activity on non-clonogenic cell lines. Format: cell-based. The settings on record: Homo sapiens, 10^−5 M, 72 hours of incubation, control condition = 100%, mean value, read-out: mean optical density as percentage of control, SW1088. The procedure: (§1) The principle of the MTT test is based on the mitochondrial reduction, by the metabolically active live cells, of the yellow-colored product MTT (3-(4,5-dimethylthiazol-2-yl)-2,5-diphenyltetrazolium bromide) to a blue-colored product, formazan. The amount of formazan thus obtained is directly proportional to the amount of live cells present in the culture well(s). This amount of formazan is measured by spectrophotometry.
(§2) The cell lines are maintained as a monolayer culture at 37° C. in stoppered culture dishes containing MEM 25 MM HEPES (Minimum Essential Medium) base medium. This medium is suited to the growth of a range of various mammalian diploid or primary cells. This medium is then supplemented with:
(§3) The 12 human cancer cell lines which were used were obtained from the American Type Culture Collection (ATCC, Rockville, Md., USA). These 12 cell lines are:
SW1088 (code ATCC: HTB-12) which is an astro-cytoma,
(§4) Experimentally, 100 μl of a cell suspension containing 20 000 to 50 000 (depending on the cell type used) cells/ml of culture medium are inoculated -in 96-well flat-bottomed multi-well plates and are left to stand in an incubator at 37° C., 5% CO2 and 70% humidity. After an incubation time of 24 hours, the culture medium is replaced with 100 μl of fresh medium containing either the various test compounds—at concentrations varying from 10^−5 to 10^−10 M—or the solvent having served for dissolving the products to be tested (control condition). […] The microplates are thus incubated for 3 hours at 37° C., then centrifuged for 10 minutes at 400 g. The yellowish solution of MTT is removed and the blue formazan crystals formed in the cell region are dissolved in 100 μl or DMSO. The microplates are then shaken for 5 minutes. […] Software incorporated in the spectrophotometer calculates the average optical density values and the standard deviation (SD) and standard error of mean (SEM) values.

In another data set the test system is T24. The description is as above. Format: cell-based. To be noted: Homo sapiens, T-24; 10^−5 M, 72 hours of incubation, control condition = 100%, mean value; read-out: mean optical density as percentage of control, T24. The procedure:
as §1, §2, §3
(§5) J82 (code ATCC: HTB-1) and T24 (code ATCC: HTB-4) which are two bladder cancers,
as §4

In another data set the test system is J82. The description is as above. The class given is cell-based. To be noted: Homo sapiens, 10^−5 M, 72 hours of incubation, control condition = 100%, mean value, read-out: mean optical density as percentage of control, J82. As to the method: as §1, §2, §3, §5, §4
The subject of the next data set is A-427. The description is as above. To be noted: Homo sapiens, 10^−5 M, 72 hours of incubation, control condition = 100%, mean value, read-out: mean optical density as percentage of control, A-427. Format: cell-based. The procedure:
as §1, §2, §3, §4

The subject of a further data set is LoVo. The description is as above. Format: cell-based. The settings on record: Homo sapiens, 10^−5 M, 72 hours of incubation, control condition = 100%, mean value, read-out: mean optical density as percentage of control, LoVo. As to the method: as §1, §2, §3, §4
The next data set has as its system HCT-15. The description is as above. The class given is cell-based. To be noted: Homo sapiens, 10^−5 M, 72 hours of incubation, control condition = 100%, mean value, read-out: mean optical density as percentage of control, HCT-16. As to the method:
as §1, §2, §3, §4

The test system of another data set is T-47D. The data set is described as above. Format: cell-based. The settings on record: Homo sapiens, T47D; 10^−5 M, 72 hours of incubation, control condition = 100%, mean value; read-out: mean optical density as percentage of control, T-47D. As to the method:
as §1, §2, §3, §4

The subject of another data set is U-87MG. The description is as above. The class given is cell-based. The settings on record: Homo sapiens, U-87 MG; 10^−5 M, 72 hours of incubation, control condition = 100%, mean value; read-out: mean optical density as percentage of control, U-87MG. The procedure:
as §1, §2, §3, §4

The subject of a further data set is PC-3. The description is as above. The class given is cell-based. The settings on record: Homo sapiens, 10^−5 M, 72 hours of incubation, control condition = 100%, mean value, read-out: mean optical density as percentage of control, PC-3. The procedure:
as §1, §2, §3, §4

Another data set has as its system U-373MG. The description is as above. Format: cell-based. The settings on record: Homo sapiens, U373 MG; 10^−5 M, 72 hours of incubation, control condition = 100%, mean value; read-out: mean optical density as percentage of control, U-373MG. As to the method:
as §1, §2, §3, §4

For another data set, the system named is MCF7. Described as above. The class given is cell-based. To be noted: Homo sapiens, 10^−5 M, 72 hours of incubation, control condition = 100%, mean value, read-out: mean optical density as percentage of control, MCF7. As to the method:
as §1, §2, §3, §4

A further data set has as its system A549. Described as above. The settings on record: Homo sapiens, 10^−5 M, 72 hours of incubation, control condition = 100%, mean value, read-out: mean optical density as percentage of control, A549. Format: cell-based. As to the method: as §1, §2, §3, §4

With `CCOC(=O)Cn1cc(-c2ccc(OC)cc2)c(=O)c2c(OC)cc(OC)cc21` [CRL8360, Ethyl 2-[5,7-dimethoxy-3-(4-methoxyphenyl)-4-oxo-1,4-dihydro-1-quinolinyl]acetate], the MTD – broadly, the largest dose that counted as tolerated – at 14 day in [1] was > 160 mg/kg. Moreover, the viability at 10 µM worked out at 75.1% in the data set with SW1088; 87.5% with T24; 81.2% in the data set with J82; 71.3% with A-427; 98.6% with LoVo; 91.8% with HCT-15. In addition, the viability at 10 µM came out at 82.1% in the data set on T-47D; 97.6% in the data set on U-87MG; 81.5% in the data set with PC-3; 88% in the data set with U-373MG; 95.3% in the data set on MCF7; 85.6% with A549.

As to `COc1ccc(-c2cn(C)c3c(OC)ccc(OC)c3c2=O)cc1` [CRL8371], the MTD at 14 day in data set [1] was 40 mg/kg. For the same molecule, the viability at 10 µM with SW1088 was found to be 40.8%; in the data set with T24, 52.2%; with J82, 76.3%; in the data set with A-427, 30.8%; with LoVo it was 45.6%; with HCT-15, 25.2%. For the same molecule, the viability at 10 µM was determined as 49.3% in the data set on T-47D; 58.7% in the data set with U-87MG; 54.2% in the data set on PC-3; 42.8% in the data set on U-373MG; 45.6% in the data set on MCF7; 42.9% with A549.

As to `COc1ccc(-c2cn(CC#N)c3cc(OC)cc(OC)c3c2=O)cc1` [CRL8372, [5,7-Dimethoxy-3-(4-methoxyphenyl)-4-oxo-1,4-dihydro-1-quinolinyl]acetonitrile], the MTD at 14 day in [1] was > 160 mg/kg. For the same molecule, the viability at 10 µM came to 98.1% with SW1088; 81.2% with T24; 93% in the data set with J82; 93.9% in the data set with A-427; 83.9% in the data set with LoVo; 84.3% in the data set with HCT-15. The viability at 10 µM with T-47D is 65.7%; in the data set on U-87MG, 92.9%; in the data set on PC-3, 110%; in the data set with U-373MG, 94.8%; with MCF7, 96.6%; in the data set on A549, 93.4%.

On to `COc1ccc(-c2cn(C)c3cc(OC)cc(O)c3c2=O)cc1` [CRL8377, 5-Hydroxy-7-methoxy-3-(4-methoxyphenyl)-1-methyl-1,4-dihydro-4-quinolinone], for which the MTD at 14 day in data set [1] was > 160 mg/kg. Besides, the viability at 10 µM in the data set with SW1088 amounted to 99.8%; in the data set with T24, 85%; in the data set with J82, 98.7%; in the data set with A-427, 26.5%; in the data set with LoVo it was 85%; with HCT-15, 86.6%. For the same molecule, the viability at 10 µM in the data set with T-47D was 66.9%; in the data set with U-87MG it was 49.5%; in the data set with PC-3 it was 87.4%; in the data set with U-373MG it was 56.7%; in the data set on MCF7 it was 104%; with A549, 67%.

Turning to `COc1ccc(-c2cn(C)c3ccc(OC)cc3c2=O)cc1` [CRL8378, 6-Methoxy-3-(4-methoxyphenyl)-1-methyl-1,4-dihydro-4-quinolinone], the MTD at 14 day in data set [1] was > 160 mg/kg. Further, the viability at 10 µM was found to be 108% with SW1088; 89.2% in the data set on T24; 99.6% in the data set on J82; 72.3% in the data set on A-427; 107% with LoVo; 105% in the data set with HCT-15. The viability at 10 µM in the data set on T-47D turned out to be 110%; in the data set with U-87MG, 73%; with PC-3, 100%; with U-373MG it was 98.1%; in the data set with MCF7 it was 93.5%; with A549 it was 91%.

As for `COc1ccc2c(c1)c(=O)c(-c1ccccc1)cn2C` [CRL8379, 6-Methoxy-1-methyl-3-phenyl-1,4-dihydro-4-quinolinone], the MTD at 14 day in data set [1] is > 160 mg/kg. Besides, the viability at 10 µM in the data set with SW1088 came out at 98.3%; in the data set on T24 it was 102%; with J82 it was 101%; in the data set on A-427, 94.2%; with LoVo it was 102%; in the data set on HCT-15, 106%. Also, the viability at 10 µM came out at 99.3% in the data set with T-47D; 95.3% in the data set with U-87MG; 99.2% in the data set with PC-3; 113% with U-373MG; 91.6% in the data set on MCF7; 94% in the data set on A549.

In the case of `CCN(CC)C(=O)Cn1cc(-c2ccc(OC)cc2)c(=O)c2c(OC)ccc(OC)c21` [CRL8380, N,N-Diethyl-2-[5,8-dimethoxy-3-(4-methoxyphenyl)-4-oxo-1,4-dihydro-1-quinolinyl]acetamide], the MTD at 14 day in data set [1] is > 160 mg/kg. Moreover, the viability at 10 µM came to 100% with SW1088; 94.9% in the data set with T24; 98.9% in the data set on J82; 89.3% in the data set on A-427; 108% in the data set with LoVo; 103% with HCT-15. Besides, the viability at 10 µM in the data set on T-47D is 88.1%; in the data set with U-87MG it was 87.5%; in the data set with PC-3 it was 102%; in the data set on U-373MG, 101%; in the data set on MCF7, 102%; with A549, 95%.

For `CCOC(=O)Cn1cc(-c2ccc(OC)cc2)c(=O)c2c(OC)ccc(OC)c21` [CRL8381, Ethyl 2-[5,8-dimethoxy-3-(4-methoxyphenyl)-4-oxo-1,4-dihydro-1-quinolinyl]acetate], the MTD at 14 day in [1] was > 160 mg/kg. The viability at 10 µM in the data set with SW1088 was 55.9%; in the data set on T24, 83.2%; in the data set with J82 it was 90.9%; with A-427, 84.2%; in the data set with LoVo it was 105%; in the data set with HCT-15, 90.5%. Further, the viability at 10 µM in the data set with T-47D was 92.6%; in the data set on U-87MG, 48.1%; with PC-3, 79.1%; with U-373MG it was 91.8%; in the data set on MCF7 it was 67.2%; in the data set on A549, 73.8%.

The values above are taken from US6645983B1, “Pharmaceutical compositions comprising 4-quinolones for treating cancers” (Laboratoire L. Lafon, priority 1999, dated 2003).
